These results are taken from PubChem BioAssay (NCI).

The term TGI denotes the concentration giving total growth inhibition. Read a high TGI as less potent growth arrest.

What all share (test): DTP human tumour cell line panel, 48 h
Experiment [1] concerns SK-MEL-2 melanoma.
Experiment [2] relates to K-562 leukemia.
Experiment [3] concerns BT-549 breast.
Experiment [4] has as its system T-47D breast.
For experiment [5], the system named is IGROV1 ovarian.
Experiment [6] concerns DU-145 prostate.
For experiment [7], the system named is MOLT-4 leukemia.
Experiment [8] has as its system HCC-2998 colon.
Experiment [9] has as its system HL-60(TB) leukemia.
In experiment [10] the test system is EKVX NSCLC.

The structures appear in SMILES notation.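 The compound was tested at five concentrations on cells cultured in 96-well plates, with a 48-hour exposure period. TGI marks complete inhibition of growth.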 Where a SMILES comes first, the peptide text is derived from it. The star is where a group is joined. Boc = CC(C)(C)OC(=O)*

`COc1ccc2cc3c4cc5c(cc4cc[n+]3cc2c1OC)OCO5`: the TGI in experiment [1] is above 57.8 µM; in [2] it was above 100 µM; in experiment [3], 7.83 µM; in [4], above 100 µM; in experiment [5] it was above 32.7 µM; in experiment [6] it was above 100 µM. Moreover, the total growth inhibition concentration (TGI) in experiment [7] was above 100 µM; in [8], above 55.5 µM; in [9], above 65.5 µM; in experiment [10], above 100 µM.
As for `C=CCOC(=O)CC[N+]1=CCC(c2ccccc2)(c2ccccc2)O1`, the total growth inhibition concentration (TGI) in [1], in experiment [2], in experiment [3], in [4], in experiment [5] and in experiment [6] was above 100 µM each time. Further, the TGI in [7], in experiment [8] and in experiment [10] was above 100 µM throughout.
Take `CC(C)(C)OC(=O)NCC(=O)NCC(=O)NCC(=O)NCC(=O)O` (Boc-GGGG-OH): the TGI in [2], in experiment [3], in experiment [4], in experiment [5], in experiment [6] and in experiment [7] was above 100 µM each time. Besides, the TGI in [8], in experiment [9] and in experiment [10] was above 100 µM in each case.
With `CN(C)C(=S)S`, the TGI in [1] was above 93.8 µM; in [2], above 100 µM; in experiment [3], above 100 µM; in experiment [4], above 100 µM; in [5], above 100 µM; in experiment [6], above 100 µM. Also, the results for the TGI in experiment [7], in experiment [8] and in [10] were above 100 µM, 59.4 µM and above 100 µM, respectively.
For the compound `Clc1ccc(-c2nn3c(-c4ccncc4)nnc3s2)cc1`, the TGI in [1], in [2], in experiment [3], in [4], in [5] and in experiment [6] was above 100 µM throughout. In addition, the TGI in experiment [7], in experiment [9] and in [10] was above 100 µM throughout.
Turning to `C/C(CC1C2CCCC1C2)=N\NC(N)=O` (stereo not drawn), the TGI in experiment [1], in [3], in [4], in experiment [5], in experiment [6] and in experiment [7] was above 100 µM each time. The TGI in experiment [8], in experiment [9] and in experiment [10] was above 100 µM throughout.
Take `C/C=C/C=C/c1nc(C#N)c(N)o1`: the concentration for total growth inhibition (TGI) in [1], in experiment [2], in experiment [3], in [4], in experiment [5] and in [6] was above 100 µM each time. The TGI in [7], in experiment [8] and in experiment [10] was above 100 µM in each case.
As for `O=c1c2ccccc2nc2[nH][nH]c(=S)n12`, the TGI in experiment [1], in [2], in experiment [3], in experiment [4], in experiment [5] and in experiment [6] was above 100 µM in each case. Moreover, the TGI in experiment [7], in experiment [9] and in experiment [10] was above 100 µM each time.
For `Cc1c(S(=O)(=O)/N=C(\N)Nc2ccc(Cl)cc2)sc2ccc(Cl)cc12`, the TGI is 33.9 µM in experiment [1]; above 100 µM in experiment [2]; 58 µM in experiment [3]; above 100 µM in [4]; 31.9 µM in [5]; 36.2 µM in [6]. Further, the concentration for total growth inhibition (TGI) was found to be 78.1 µM in experiment [7], 63.5 µM in [9] and 33.4 µM in [10].
As to `O=[N+]([O-])/C(C(Cl)=C(Cl)Cl)=C(\Nc1cccc2cccnc12)SCc1ccccc1`, the TGI came to 41 µM in experiment [1]; 56.9 µM in [2]; 35.6 µM in experiment [3]; 40.2 µM in experiment [4]; 39.6 µM in [6]; 14.4 µM in experiment [7]. The TGI in experiment [8] was 36.7 µM; in experiment [10], 49.1 µM.
For the compound `CCOc1cc(C2CC(c3ccc(NS(=O)(=O)c4cc([N+](=O)[O-])ccc4C)cc3)=NN2C(=O)c2ccccc2)ccc1O` (stereo not drawn), the TGI in [1] was 30.9 µM; in [2], above 100 µM; in [3], 93.3 µM; in experiment [4] it was 71.3 µM; in experiment [5] it was above 100 µM; in experiment [6], above 100 µM. Further, the TGI in [7] was above 100 µM; in experiment [9] it was 65.4 µM; in [10] it was 61.4 µM.
Take `c1ccc2sc(SCSc3nc4ccccc4s3)nc2c1`: the TGI in experiment [1], in experiment [2], in [3], in experiment [4], in [5] and in [6] was above 100 µM in each case. Also, the TGI in experiment [7], in experiment [8] and in experiment [10] was above 100 µM each time.
For the compound `CCOC(=O)NC(=S)NN(C)C1=NCC(C)(C)S1`, the TGI in experiment [1], in experiment [2], in [3], in [4], in [5] and in experiment [6] was above 100 µM each time. Also, the TGI in experiment [7], in experiment [9] and in [10] was above 100 µM in each case.
As for `CS(=O)(=O)OCCn1c(=O)n(CCOS(C)(=O)=O)c(=O)n(CCOS(C)(=O)=O)c1=O`, the TGI in experiment [2], in experiment [3], in experiment [4], in experiment [5], in experiment [6] and in experiment [7] was above 100 µM each time. The TGI in experiment [8], in experiment [9] and in experiment [10] was above 100 µM in each case.
Consider `NNC(=O)c1ccc[n+](CCc2ccccc2)c1`, for which the total growth inhibition concentration (TGI) in experiment [2], in experiment [3], in experiment [4], in experiment [5], in experiment [6] and in experiment [7] was above 100 µM throughout. The TGI in experiment [8], in [9] and in experiment [10] was above 100 µM throughout.
Consider `COc1ccc(CC(O)CN2CCOCC2)cc1` (stereo not drawn), for which the concentration for total growth inhibition (TGI) in [1], in experiment [2], in [3], in experiment [4], in experiment [5] and in [6] was above 100 µM each time. The TGI in experiment [7], in experiment [9] and in experiment [10] was above 100 µM in each case.
For the compound `O=C(CCCN1CCC2(CC1)CC(=O)N(N1CCOCC1)C2=O)c1ccccc1`, the TGI was above 100 µM in [2]; 27.9 µM in experiment [3]; above 100 µM in [4]; above 100 µM in [5]; above 100 µM in [6]; above 100 µM in experiment [7]. Moreover, the TGI in experiment [8], in [9] and in [10] was above 100 µM in each case.
As for `COc1cc(C2SCC(=O)N2c2ccc(NC(=O)c3ccc(N4C(=O)CSC4c4cc(OC)c(OC)c(OC)c4)cc3)cc2)cc(OC)c1OC` (stereo not drawn), the TGI in experiment [1], in experiment [2], in [3], in [4], in experiment [5] and in [6] was above 100 µM throughout. The TGI in experiment [7], in experiment [8] and in [10] was above 100 µM in each case.
For `COc1ccc(C(OCC2OC(n3cc(C)c(=O)[nH]c3=O)CC2n2cc(Cn3cc(F)c(=O)[nH]c3=O)nn2)(c2ccccc2)c2ccccc2)cc1` (stereo not drawn), the TGI came to 24.8 µM in experiment [1]; 28.8 µM in experiment [3]; 24.4 µM in experiment [4]; 36.4 µM in experiment [5]; 27.1 µM in [6]; 18.6 µM in [7]. Besides, the values for the TGI in experiment [8], in [9] and in experiment [10] were 15.1 µM, 5.83 µM and 23.3 µM, respectively.
For `N#CCCN(CCC#N)c1ccc(/C=C2\N=C(c3ccccc3)N(c3ccc(Cl)cc3)C2=O)cc1`, the TGI in [1], in experiment [2], in [3], in experiment [4], in experiment [5] and in experiment [6] was above 100 µM in each case. In addition, the TGI in [7], in [9] and in [10] was above 100 µM throughout.
Turning to `CCOC(=N)n1c(=O)n(C2=NCCN2)c2ccccc21`, the TGI in experiment [2], in [3], in [4], in [5], in [6] and in experiment [7] was above 100 µM in each case. In addition, the TGI in experiment [8], in [9] and in experiment [10] was above 100 µM in each case.
With `O=C(NCCCN(CCCCN(CCCNC(=O)C(F)(F)F)Cc1ccccc1)Cc1ccccc1)C(F)(F)F`, the TGI was 30.6 µM in experiment [2]; 28.1 µM in experiment [3]; 40.6 µM in experiment [4]; 26.2 µM in experiment [5]; 56.2 µM in experiment [6]; 39.9 µM in experiment [7]. Besides, the TGI in [8] was determined as 14.7 µM; in experiment [9], 36.3 µM; in experiment [10] it was 25.3 µM.
